This is an account of results in ChEMBL document CHEMBL3259594, “Benzylpiperidine variations on histamine H3 receptor ligands for improved drug-likeness” (Bioorg Med Chem Lett, 2014).

In the first assay the target is T1, Histamine H3 receptor (Homo sapiens, UniProt Q9Y5N1). Put plainly: Displacement of [3H]N-alpha-methylhistamine from recombinant human histamine H3 receptor expressed in HEK293 cells after 90 mins. The format is cell-based.
T1 sequence (Q9Y5N1 whole entry): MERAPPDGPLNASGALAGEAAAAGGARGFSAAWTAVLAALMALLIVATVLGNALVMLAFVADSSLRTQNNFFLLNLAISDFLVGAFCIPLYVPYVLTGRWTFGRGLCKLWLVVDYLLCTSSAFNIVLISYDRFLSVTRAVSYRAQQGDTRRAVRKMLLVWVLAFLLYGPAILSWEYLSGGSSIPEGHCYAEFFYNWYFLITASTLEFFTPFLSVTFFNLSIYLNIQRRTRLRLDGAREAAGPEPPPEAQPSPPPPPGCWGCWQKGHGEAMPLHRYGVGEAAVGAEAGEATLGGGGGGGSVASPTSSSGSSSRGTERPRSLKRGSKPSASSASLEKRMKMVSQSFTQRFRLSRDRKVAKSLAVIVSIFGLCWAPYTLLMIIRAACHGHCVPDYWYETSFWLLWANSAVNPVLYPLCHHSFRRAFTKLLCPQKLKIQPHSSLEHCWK
As usually defined, the Ki is the dissociation constant of the complex between target and ligand, obtained from inhibition or displacement. Consider `CCOC(=O)C1CCN(Cc2ccc(OCCCN3CCCCC3)cc2)CC1`, for which the Ki was 0.229 nM.

`O=C(O)C1CCN(Cc2ccc(OCCCN3CCCCC3)cc2)CC1`: the Ki was 12.9 nM.

For the molecule `OC1CCN(Cc2ccc(OCCCN3CCCCC3)cc2)CC1`, the Ki is 0.589 nM.

Take `OCC1CCN(Cc2ccc(OCCCN3CCCCC3)cc2)CC1`: the Ki was 0.676 nM.

Turning to `Cc1nnc(C2CCN(Cc3ccc(OCCCN4CCCCC4)cc3)CC2)o1`, the Ki is 0.479 nM.

Another assay deals with T1, Histamine H3 receptor. Kind of assay: Displacement of [125I]Iodoproxyfan from recombinant human histamine H3 receptor expressed in HEK293 cells after 90 mins. The format is cell-based.
Take `c1cc(OCCCN2CCCCC2)ccc1CN1CCC2(CC1)OCCO2`: the Ki is 2.04 nM.

With `C#CCNC(=O)C1CCN(Cc2ccc(OCCCN3CCCCC3)cc2)CC1`, the Ki is 11 nM.

In the case of `CCNC(=O)C1CCN(Cc2ccc(OCCCN3CCCCC3)cc2)CC1`, the Ki is 2.95 nM.

As for `c1ccc2c(c1)CCN(Cc1ccc(OCCCN3CCCCC3)cc1)C2`, the inhibition constant Ki is 2.95 nM.

Consider `O=C1CCN(Cc2ccc(OCCCN3CCCCC3)cc2)CC1`, for which the inhibition constant (Ki) is 2.51 nM.

The target of the next assay is Histamine H3 receptor (Rattus norvegicus, UniProt Q9QYN8). Kind of assay: Binding affinity to rat histamine H3 receptor.
Histamine H3 receptor (Rattus norvegicus, UniProt Q9QYN8), sequence (Q9QYN8 whole entry): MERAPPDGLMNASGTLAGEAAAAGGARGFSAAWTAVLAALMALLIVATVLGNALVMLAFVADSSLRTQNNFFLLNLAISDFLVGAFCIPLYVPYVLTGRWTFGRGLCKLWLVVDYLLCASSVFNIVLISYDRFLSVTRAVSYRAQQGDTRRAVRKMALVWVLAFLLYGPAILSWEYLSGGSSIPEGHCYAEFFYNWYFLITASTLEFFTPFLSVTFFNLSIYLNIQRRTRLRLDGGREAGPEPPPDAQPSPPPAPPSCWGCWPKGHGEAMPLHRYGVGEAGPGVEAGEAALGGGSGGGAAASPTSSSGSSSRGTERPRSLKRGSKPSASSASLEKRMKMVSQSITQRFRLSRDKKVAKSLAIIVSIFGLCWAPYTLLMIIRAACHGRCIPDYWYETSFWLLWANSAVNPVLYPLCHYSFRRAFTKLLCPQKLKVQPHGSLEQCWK
Molecule `c1cc(OCCCN2CCCCC2)ccc1CN1CCCCC1` [JNJ-5207852] yielded a Ki of 0.58 nM.
